Assay in all cases: biochemical
One test has as its target T1, α-1a adrenoreceptor (Bos taurus, UniProt P18130).
T1 sequence (P18130 1-466): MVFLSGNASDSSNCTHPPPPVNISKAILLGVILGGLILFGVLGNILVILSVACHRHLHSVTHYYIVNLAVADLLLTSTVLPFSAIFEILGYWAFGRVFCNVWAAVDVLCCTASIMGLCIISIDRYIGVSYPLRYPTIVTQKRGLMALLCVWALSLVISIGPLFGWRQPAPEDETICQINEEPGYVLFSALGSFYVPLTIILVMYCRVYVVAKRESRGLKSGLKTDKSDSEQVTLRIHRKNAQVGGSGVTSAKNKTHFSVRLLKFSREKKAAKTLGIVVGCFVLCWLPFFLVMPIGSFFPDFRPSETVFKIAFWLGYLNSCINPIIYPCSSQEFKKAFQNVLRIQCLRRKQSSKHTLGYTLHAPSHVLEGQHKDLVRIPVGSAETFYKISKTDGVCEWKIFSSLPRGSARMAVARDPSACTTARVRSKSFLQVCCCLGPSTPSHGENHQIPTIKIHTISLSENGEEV
It is filed as binding, bovine. An outline of the steps: (§1)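 Cloned α-1a, α-1b and α-1d adrenoreceptors stably expressed in mouse LTK fibroblasts; membranes prepared in 50 mM Tris-HCl, pH 7.4. Radioligand binding per Greengrass and Bremner method, scintillation counting. The α-1A subtype used rat submaxillary gland membranes.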

Another test addresses T2, α-1d adrenoreceptor (Rattus norvegicus, UniProt P23944).
T2 sequence (P23944 1-561): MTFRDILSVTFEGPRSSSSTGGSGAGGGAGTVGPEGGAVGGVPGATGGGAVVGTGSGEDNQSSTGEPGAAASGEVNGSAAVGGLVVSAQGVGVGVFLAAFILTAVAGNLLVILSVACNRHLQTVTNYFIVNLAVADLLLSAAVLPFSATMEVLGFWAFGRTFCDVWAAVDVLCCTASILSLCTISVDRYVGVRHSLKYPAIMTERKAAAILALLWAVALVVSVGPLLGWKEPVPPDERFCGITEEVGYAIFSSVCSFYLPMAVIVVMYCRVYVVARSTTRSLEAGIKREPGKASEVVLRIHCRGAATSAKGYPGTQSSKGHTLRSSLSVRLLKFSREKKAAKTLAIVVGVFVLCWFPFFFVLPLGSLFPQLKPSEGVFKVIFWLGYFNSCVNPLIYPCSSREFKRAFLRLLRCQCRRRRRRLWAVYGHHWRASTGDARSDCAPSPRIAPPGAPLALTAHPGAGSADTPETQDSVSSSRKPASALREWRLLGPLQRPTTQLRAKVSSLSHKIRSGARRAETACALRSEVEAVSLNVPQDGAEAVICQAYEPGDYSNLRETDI
It is filed as binding. An outline of the steps: as §1

The target in test [1] is T3, α-1A adrenoreceptor (rat submaxillary gland) (Rattus norvegicus, UniProt P43140).
T3 sequence (P43140 1-466): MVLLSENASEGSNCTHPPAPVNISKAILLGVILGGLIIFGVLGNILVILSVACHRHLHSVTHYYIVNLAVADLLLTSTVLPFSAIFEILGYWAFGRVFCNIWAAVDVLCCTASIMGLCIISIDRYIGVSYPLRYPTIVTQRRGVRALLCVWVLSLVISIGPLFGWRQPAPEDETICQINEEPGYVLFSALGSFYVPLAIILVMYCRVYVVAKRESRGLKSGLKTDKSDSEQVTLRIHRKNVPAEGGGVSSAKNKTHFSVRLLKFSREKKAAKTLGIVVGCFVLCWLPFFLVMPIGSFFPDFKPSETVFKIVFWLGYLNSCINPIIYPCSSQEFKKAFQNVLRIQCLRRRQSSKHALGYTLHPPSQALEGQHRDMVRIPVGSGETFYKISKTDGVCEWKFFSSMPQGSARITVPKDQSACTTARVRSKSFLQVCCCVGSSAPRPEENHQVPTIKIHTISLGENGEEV
The format is binding. An outline of the steps: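 Radioligand binding to α-1A sites in membrane homogenates of rat submaxillary gland, run after Greengrass and Bremner. Bound radioactivity counted by liquid scintillation.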

The mark [2] stands for this setting: read-out: Radioligand Binding (Ki, nM) 1a (Bovine).
[3] abbreviates: read-out: Radioligand Binding (Ki, nM) 1d (Rat).
The mark [4] stands for this setting: read-out: Radioligand Binding (Ki, nM) 1A (Rat).
Setting [5] is: [3H]-prazosin radioligand, cloned receptor in LTK cell membranes, read-out: Radioligand Binding (Ki, nM) 1a (Bovine).
[6] abbreviates: [3H]-prazosin radioligand, cloned receptor in LTK cell membranes, read-out: Radioligand Binding (Ki, nM) 1d (Rat).
Where [7] appears, read: [3H]-prazosin radioligand, rat submaxillary gland membranes, read-out: Radioligand Binding (Ki, nM) 1A (Rat).

The structures appear in SMILES notation. Structures can show the parent of a compound that is named as a salt. Where two headings read alike, the source gives them in different places.

`O=c1[nH]c2c(sc3cccnc32)c(=O)n1CCCCN1C[C@@H]2COc3ccccc3[C@@H]2C1` (racemic) [Example 70, 3-[4-((±)-cis-1,2,3,3a,4,9b-hexahydro-[1]-benzopyrano[3,4-c]pyrrol-2-yl)butyl]-pyrido[2',3':4,5]thieno[3,2-d]pyrimidine-2,4(1H,3H)-dione dihydrochloride]: the results for the inhibition constant Ki (at α-1a adrenoreceptor (setting [2]); at α-1d adrenoreceptor (setting [3]); in test [1] (setting [4])) were 0.082 nM, 0.482 nM and 0.17 nM, respectively.

For `COc1cccc2c1[C@H]1CN(CCCCn3c(=O)[nH]c4c(sc5nccnc54)c3=O)C[C@@H]1CO2.Cl.Cl` (racemic) [Example 74, 3-[4-((±)-trans-9-Methoxy-1,2,3,3a,4,9b-hexahydro-[1]-benzopyrano[3,4-c]pyrrol-2-yl)butyl]-pyrazino[2',3':4,5]thieno[3,2-d]pyrimidine-2,4(1H,3H)-dione dihydrochloride], the inhibitory constant (Ki) was found to be 1.53 nM at α-1a adrenoreceptor (setting [2]), 2.94 nM at α-1d adrenoreceptor (setting [3]) and 3.29 nM in test [1] (setting [4]).

With `COc1cc2[nH]c(=O)n(CCCCN3C[C@@H]4COc5ccccc5[C@@H]4C3)c(=O)c2cc1OC` (racemic) [Example 81, 3-[4-((±1-cis-1,2,3,3a,4,9b-hexahydro-[1]-benzopyrano[3,4-c]pyrrol-2-yl)butyl]-6,7-dimethoxy-quinazoline-2,4(1H,3H)-dione hydrochloride], the results for the inhibitory constant (Ki) (on α-1a adrenoreceptor (setting [5]); at α-1d adrenoreceptor (setting [6]); in test [1] (setting [7])) were 0.052 nM, 0.108 nM and 0.045 nM, respectively.

Take `COc1cccc2c1[C@@H]1CCN(CCCCn3c(=O)[nH]c4c(sc5ncccc54)c3=O)C[C@H]1CO2` (racemic) [Example 85, 3-[4-((±)-trans-10-Methoxy-1,3,4,4a,5,10b-hexahydro-2H-[1]-benzopyrano[3,4-c]pyrido-3-yl)butyl]-pyrido[3',2':4,5]thieno[3,2-d]pyrimidine-2,4(1H,3H)-dione dihydrochloride]: the Ki was 0.336 nM on α-1a adrenoreceptor (setting [5]), 0.566 nM on α-1d adrenoreceptor (setting [6]) and 0.419 nM in test [1] (setting [7]).

For the compound `COc1cnc2sc3c(=O)n(CCCCN4CC5COc6cccc(OC)c6[C@@H]5C4)c(=O)[nH]c3c2n1.Cl` (stereo in doubt) [Example 43, 3-[4-((3aS,9bR)-trans-9-Methoxy-1,2,3,3a,4,9b-hexahydro-[1]-benzopyrano[3,4-c]pyrrol-2-yl)butyl]-8-methoxy-pyrazino[2',3':4,5]thieno[3,2-d]pyrimidine-2,4(1H,3H)-dione hydrochloride], the inhibition constant (Ki) on α-1a adrenoreceptor (setting [5]) is 0.037 nM; at α-1d adrenoreceptor (setting [6]), 0.063 nM; in test [1] (setting [7]), 0.114 nM.

In the case of `COc1cc2nc(N3CCN(C(=O)C4COc5ccccc5O4)CC3)nc(N)c2cc1OC` (stereo not drawn) [Doxazosin, doxazosin, reference compound], the Ki was 0.912 nM at α-1a adrenoreceptor, 0.231 nM on α-1d adrenoreceptor and 0.423 nM in test [1].

Consider `COc1cccc2c1[C@@H]1CN(CCCCn3c(=O)[nH]c4c(sc5cccnc54)c3=O)C[C@@H]1CO2` [Example 1, 3-[4-((3aR,9bR)-cis-9-Methoxy-1,2,3,3a,4,9b-hexahydro-[1]-benzopyrano[3,4-c]pyrrol-2-yl)butyl]-pyrido[2',3':4,5]thieno[3,2-d]pyrimidine-2,4(1H,3H)-dione hydrochloride], for which the inhibitory constant (Ki) at α-1a adrenoreceptor (setting [5]) was determined as 0.024 nM; at α-1d adrenoreceptor (setting [6]), 0.223 nM; in test [1] (setting [7]) it was 0.045 nM.

For `COc1cccc2c1[C@H]1CN(CCCCn3c(=O)[nH]c4c(sc5cccnc54)c3=O)C[C@H]1CO2` [Example 2, 3-[4-((3aS,9bS)-cis-9-Methoxy-1,2,3,3a,4,9b-hexahydro-[1]-benzopyrano[3,4-c]pyrrol-2-yl)butyl]-pyrido[2',3':4,5]thieno[3,2-d]pyrimidine-2,4(1H,3H)-dione hydrochloride], the Ki on α-1a adrenoreceptor (setting [5]) was determined as 0.193 nM; at α-1d adrenoreceptor (setting [6]), 2.72 nM; in test [1] (setting [7]) it was 0.95 nM.

For the compound `COc1cccc2c1[C@@H]1CN(CCCCn3c(=O)[nH]c4c(sc5cccnc54)c3=O)C[C@H]1CO2` [Example 3, 3-[4-((3aS,9bR)-trans-9-Methoxy-1,2,3,3a,4,9b-hexahydro-[1]-benzopyrano[3,4-c]pyrrol-2-yl)butyl]-pyrido[2',3':4,5]thieno[3,2-d]pyrimidine-2,4(1H,3H)-dione hydrochloride], the Ki is 0.02 nM on α-1a adrenoreceptor (setting [5]), 0.041 nM on α-1d adrenoreceptor (setting [6]) and 0.026 nM in test [1] (setting [7]).

Consider `COc1cccc2c1[C@@H]1CN(CCCCn3c(=O)[nH]c4c(sc5ncc(Cl)nc54)c3=O)C[C@H]1CO2` [Example 13, 3-[4-((3aS,9bR)-trans-9-Methoxy-1,2,3,3a,4,9b-hexahydro-[1]-benzopyrano[3,4-c]pyrrol-2-yl)butyl]-8-chloro-pyrazino[2',3':4,5]thieno[3,2-d]pyrimidine-2,4(1H,3H)-dione hydrochloride], for which the figures for the inhibitory constant (Ki) (on α-1a adrenoreceptor (setting [5]); at α-1d adrenoreceptor (setting [6]); in test [1] (setting [7])) were 0.041 nM, 0.112 nM and 0.1 nM, respectively.

Turning to `COc1cccc2c1[C@@H]1CN(CCCCn3c(=O)[nH]c4c(sc5c(OC)ccnc54)c3=O)C[C@H]1CO2` [Example 17, 3-[4-((3aS,9bR)-trans-9-Methoxy-1,2,3,3a,4,9b-hexahydro-[1]-benzopyrano[3,4-c]pyrrol-2-yl)butyl]-6-methoxy-pyrido[2',3':4,5]thieno[3,2-d]pyrimidine-2,4(1H,3H)-dione dihydrochloride], the Ki at α-1a adrenoreceptor (setting [5]) was determined as 0.068 nM; on α-1d adrenoreceptor (setting [6]), 0.19 nM; in test [1] (setting [7]) it was 0.175 nM.

Consider `COc1cccc2c1[C@@H]1CN(CCCCn3c(=O)[nH]c4c(sc5c(OC)ccnc54)c3=O)C[C@@H]1CO2` [Example 18, 3-[4-((3aR,9bR)-cis-9-Methoxy-1,2,3,3a,4,9b-hexahydro[1]-benzopyrano[3,4-c]pyrrol-2-yl)butyl]-6-methoxy-pyrido[2',3':4,5]thieno[3,2-d]pyrimidine-2,4(1H,3H)-dione dihydrochloride], for which the results for the Ki (at α-1a adrenoreceptor (setting [5]); on α-1d adrenoreceptor (setting [6]); in test [1] (setting [7])) were 0.069 nM, 0.79 nM and 0.284 nM, respectively.

Regarding `COc1cccc2c1[C@@H]1CN(CCCCn3c(=O)[nH]c4c(sc5ccc(Cl)nc54)c3=O)C[C@H]1CO2` [Example 25, 3-[4-((3aS,9bR)-trans-9-Methoxy-1,2,3,3a,4,9b-hexahydro-[1]-benzopyrano[3,4-c]pyrrol-2-yl)butyl]-8-chloro-pyrido[2',3':4,5]thieno[3,2-d]pyrimidine-2,4(1H,3H)-dione dihydrochloride], the inhibition constant Ki at α-1a adrenoreceptor (setting [5]) is 0.03 nM; on α-1d adrenoreceptor (setting [6]), 0.039 nM; in test [1] (setting [7]), 0.061 nM.

`COc1ccc2sc3c(=O)n(CCCCN4C[C@H]5COc6cccc(OC)c6[C@@H]5C4)c(=O)[nH]c3c2n1` [Example 26, 3-[4-((3aS,9bR)-trans-9-Methoxy-1,2,3,3a,4,9b-hexahydro-[1]-benzopyrano[3,4-c]pyrrol-2-yl)butyl]-8-methoxy-pyrido[2',3':4,5]thieno[3,2-d]pyrimidine-2,4(1H,3H)-dione hydrochloride]: the figures for the inhibition constant Ki (at α-1a adrenoreceptor (setting [5]); on α-1d adrenoreceptor (setting [6]); in test [1] (setting [7])) were 0.022 nM, 0.017 nM and 0.09 nM, respectively.

As for `COc1cccc2c1[C@@H]1CN(CCCCn3c(=O)[nH]c4c(sc5ccncc54)c3=O)C[C@@H]1CO2` [Example 28, 3-[4-((3aR,9bR)-cis-9-Methoxy-1,2,3,3a,4,9b-hexahydro-[1]-benzopyrano[3,4-c]pyrrol-2-yl)butyl]-pyrido[3',4':4,5]thieno[3,2-d]pyrimidine-2,4(1H,3H)-dione dihydrochloride], the inhibition constant Ki on α-1a adrenoreceptor (setting [5]) was 0.092 nM; on α-1d adrenoreceptor (setting [6]) it was 0.195 nM; in test [1] (setting [7]), 0.273 nM.

Usually Ki stands for the dissociation constant of the complex between target and ligand, obtained from inhibition or displacement.

(Values after EP0942911B1, “BENZOPYRANOPYRROLE AND BENZOPYRANOPYRIDINE ALPHA-1 ADRENERGIC COMPOUNDS” (Abbott Laboratories, priority 1996, dated 1998).)
